Laboratory results published in US6235717A, “Pharmaceutical compounds” (Glaxo Wellcome Inc., priority 1993, dated 2001).
Non-standard residues stand in square brackets, D forms with d. Residues, ends and D or L forms follow the SMILES beside them. *: point of attachment. Phe(4-Br) = N[CH](Cc1ccc(Br)cc1)C(=O)O; Cbz = O=C(OCc1ccccc1)*; Bn = c1ccc(C*)cc1

Target: endothelin converting enzyme (ECE) (Sus scrofa, UniProt F1SU04)
Assay: "ECE" assay with porcine aortic "ECE" prep, fluorogenic substrate Suc-Ile-Ile-Trp-MCA
Type: biochemical
Conditions: porcine aortic endothelial cell ECE prep; 80 μM Suc-Ile-Ile-Trp-MCA; 15-20 min preincubation; overnight at 37° C.; pH 7.0; AMC fluorescence
Method: IC50 values were determined as follows:
Porcine Aortic "ECE" Prep
Porcine aortas (22-25) were obtained fresh from a local slaughterhouse and delivered in cold PBS on ice. The aortas were cut open, rinsed with cold PBS and the endothelial cell layer scraped into cold PBS using a scalpel. The endothelial cells were pelleted by centrifugation, rinsed once with cold PBS, and repelleted. The pellet was lysed by addition of 10 volumes of 10 mM Tris-HCl, pH 7.0, containing protease inhibitors and DTS, followed by brief sonication and homogenization. The lysate was centrifuged at 100,000 g for 1 hour and the supernatant applied to a MONOQ FPLC anion exchange column equilibrated in 10 mM Tris-HCl, pH 7.0 (buffer A) which was then developed with an increasing gradient of NaCl in buffer A. The active fractions were aliquoted and stored at -70° C.
The ECE assay was performed in 96-well microplates in a total volume of 200μ/well. The assay cocktail contains 100 mM Tris-HCl, pH 7.0, 20 mM CaCl2, 80 μM substrate (Suc-Ile-Ile-Trp-MCA), enzyme and test compounds. The test compounds were preincubated with the enzyme for 15-20 minutes before initiation of the assay by addition of the substrate. The assay was incubated overnight at 37° C. and the fluorescence intensity caused by the release of AMC was determined using a fluorescence microplate reader (EX360 nm/EM460 nm). IC50 values for compounds were determined by constructing concentration-effect curves for the inhibition of enzyme activity. Concentrations on the linear portion of the inhibition curve were used to determine the IC50 utilizing a Hill plot.

Chain of endothelin converting enzyme (ECE) (F1SU04 entry or part of it): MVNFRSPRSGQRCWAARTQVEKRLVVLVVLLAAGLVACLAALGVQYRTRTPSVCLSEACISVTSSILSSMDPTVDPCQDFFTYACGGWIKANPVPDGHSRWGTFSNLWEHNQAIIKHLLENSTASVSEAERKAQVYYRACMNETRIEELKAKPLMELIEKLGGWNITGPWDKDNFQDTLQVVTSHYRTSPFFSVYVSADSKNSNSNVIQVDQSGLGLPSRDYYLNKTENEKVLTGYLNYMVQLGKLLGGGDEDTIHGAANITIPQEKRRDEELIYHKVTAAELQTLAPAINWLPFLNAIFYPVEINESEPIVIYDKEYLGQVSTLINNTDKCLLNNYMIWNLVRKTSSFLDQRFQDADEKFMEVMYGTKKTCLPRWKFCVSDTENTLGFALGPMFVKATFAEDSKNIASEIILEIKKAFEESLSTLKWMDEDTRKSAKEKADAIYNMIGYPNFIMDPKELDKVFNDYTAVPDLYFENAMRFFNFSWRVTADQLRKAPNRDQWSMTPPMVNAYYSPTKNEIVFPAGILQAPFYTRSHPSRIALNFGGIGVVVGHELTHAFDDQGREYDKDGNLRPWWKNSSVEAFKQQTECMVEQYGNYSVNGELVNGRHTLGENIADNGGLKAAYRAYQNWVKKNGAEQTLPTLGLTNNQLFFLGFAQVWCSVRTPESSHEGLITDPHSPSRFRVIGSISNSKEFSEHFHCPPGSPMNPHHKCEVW

Row | Compound | IC50 [nM]
1 | O=C[C@H](Cc1ccc(Br)cc1)NC(=O)[C@H](Cc1ccc(OCc2ccccc2)cc1)NC(=O)[C@H](Cc1ccc(OCc2ccccc2)cc1)NC(=O)OCc1ccccc1 [Example 98, N-Benzyloxycarbonyl-S-(O-benzyl)tyrosyl-S-(O-benzyl)tyrosyl-1-S-formyl-1-(4-bromophenylmethyl)-methylamide] (Cbz-Tyr(Bn)-Tyr(Bn)-[Phe(4-Br)]-aldehyde) | 1000
2 | CCOc1ccc(CC(NC(=O)C(Cc2ccc(OCc3ccccc3)cc2)NC(=O)OCc2ccccc2)C(=O)NC(C=O)Cc2ccc(Br)cc2)cc1 (stereo not drawn) [Example 99, N-Benzyloxycarbonyl-S-(O-benzyl)tyrosyl-S-(O-ethyl)tyrosyl-1-S-formyl-1-(4-bromophenylmethyl)-methylamide] (Cbz-Tyr(Bn)-Tyr(Et)-[Phe(4-Br)]-aldehyde; configuration not given here) | 20
3 | CCOc1ccc(C[C@H](NC(=O)OCc2ccccc2)C(=O)N[C@@H](Cc2ccc(OCc3ccccc3)cc2)C(=O)N[C@H](C=O)Cc2ccc(Br)cc2)cc1 [Example 100, N-Benzyloxycarbonyl-S-(O-ethyl)tyrosyl-S-(O-benzyl)tyrosyl-1-S-formyl-1-(4-bromophenylmethyl)-methylamide] (Cbz-Tyr(Et)-Tyr(Bn)-[Phe(4-Br)]-aldehyde) | 60
4 | N-(3-Phenylpropionyl)-L-isoleucyl-L_isoleucine-L-N-[1-formyl]2-(1H-indol-3- yl)ethyl]amide [Example 59] | 100
5 | N-(benzyloxy)carbonyl-L-isoleucyl-L-isoleucine-L-N[1-[[(5-nitro-2-pyridyl)dithio]methyl]-2-(1H-indol-3-yl)ethyl]amide [Example 57] | 1000
6 | N-Benzloxycarbonyl-L-isoleucyl-L-isoleucine-L-N-[1-ethoxalyl]2-(phenyl)ethyl]amide [Example 53] | 10000
7 | N-Benzyloxycarbonyl-L-isoleucyl-L-isoleucine-L-N-[1-[2-oxiranylcarbonyl]-2- (phenyl)ethyl]amide [Example 45] | 200
8 | N-Benzyloxycarbonyl-L-isoleucyl-L-isoleucine-L-N-[1-formylhydroxymethyl-2-(phenylethyl]amide) [Example 47] | 5000
9 | N-Benzyloxycarbonyl-L-isoleucyl-L-isoleucine-L-N-[1-glyoxyloyl-2-(phenyl)ethyl]amide [Example 46] | 800
10 | N-Benzyloxycarbonyl-L-isoleucyl-L-isoleucine-L-N-[1pyruvoyl]2-(phenyl)ethyl]amide [Example 52] | 2000
11 | N-Benzyloxycarbonyl-L-isoleucyl-L-isoleucine-L-N-[(E)-2-(methoxycarbonyl)vinyl]2-(1H-indol-3-yl)ethyl]amide [Example 51] | 10000
12 | N-Benzyloxycarbonyl-L-isoleucyl-L_isoleucine-L-N-[1[2-(acetylthio)acetyl]2- phenyl)ethyl]amide [Example 55] | 8000
13 | N-Benzyloxycarbonyl-S-isoleucyl-S-phenylalanyl-1-S-formyl-1-(S)-1-methylpropylbutyl-methylamide [Example 23] | 3500
14 | N-Benzyloxycarbonyl-S-p-bromophenylalanyl-S-2'naphthylalanyl-1-S-formyl-1-(1H-indol-3-yl-methyl)-methylamide [Example 38] | 8
15 | N-Benzyloxycarbonyl-S-tryptophanyl-S-2'naphthylalanyl-1-S-formyl-1-(1H-indol-3-yl-methyl)-methylamide [Example 35] | 30
16 | N-Benzyloxycarbonyl-S-tryptophanyl-S-tryptophanyl-1-S-formyl-1-(1H-indol-3- yl-methyl)-methylamide [Example 31] | 60
17 | N-[12-[(benzyloxy)acetamido]dodecanoyl]--L-isoleucyl-L-isoleucine-L-N-[1-formyl]2-(1H-indol-3-yl)ethyl]amide [Example 79] | 60
